The values that follow come from patent US6207655A, “Bis-phosphonate confugates with alkylating moieties having antitumor activity” (Novuspharma S.p.A., priority 1997, dated 2001).

In data set [1] the test system is human multiple myeloma HS-Sultan cells. Briefly: experimental model of human multiple myeloma HS-Sultan, mean survival time. It is filed as in vivo, human cells in SCID rats. The following applies: iv/iv, days +15, 18, 21; for TMS (MST = Mean Survival Time in days from the tumor inoculation): controls: MST 33-37; for Tox: HS-Sultan. As to the method: (§1) The experiment is performed by inoculating intravenously (i.v.) the human multiple myeloma HS-Sultan cells in SCID rats (immunodeficient rats) at day 0, followed by treatment i.v. with a compound of the invention at days 15, 18 and 21.
The activity of the compounds of the invention was evaluated in relationship with the following parameters:
Mean Survival Time (MST) in comparison with the not treated rats (which have a mean survival time of 30 days after tumor inoculation);

The test system is the same in data set [2]. Briefly: histopathological examination of tumor infiltration in the human multiple myeloma model. It is filed as in vivo, human cells in SCID rats. Set-up: key to tumor infiltration score: -: absence of infiltration; +: slight infiltration; ++: middle to high infiltration. The following applies: for tumor infiltration score: 38 days from the treatment; for effect on the tumor infiltration (in words): human multiple myeloma model. As to the method: as §1
evaluation of histological parameters (bone marrow invasion and degree of osteolytic lesions).

Data set [3] concerns murine breast carcinoma Walker 256/B. Briefly: antitumor activity in vivo against Walker 256/B implanted intratibia (TWI%). Also on record: species or system murine tumor; male rats CD1. The conditions noted are these: it/iv, days 1, 4, 7; for TWI % (tumor weight inhibition %): measured day 14; for Tox: Walker 256/B. The text has this:
The compounds of the invention have been tested "in vivo" against the murine breast carcinoma Walker 256/B implanted intratibia (it). After inoculation into the bone marrow cavity of the tibia, this tumor grows inside the bone causing osteolytic lesions, paraneoplastic hypercalcaemia and by invading the surrounding tissues it forms a measurable tumor mass. It is therefore possible to determine both the antitumor activity on the extraosseous tumor and the anti-osteolytic effect (Cancer, 72(1), 91 (1993)).
The Walker 256/B tumor was provided by NCI Frederick Cancer Facility and was maintained in male rats CD1 by means of subcutaneous transplantation of tumor fragments of about 1 cm diameter every 10 days.
To perform the experiment, each rat was injected it with 2.5×10^6tumor cells; all the animals were anesthetized with a mixture of 10 mg/kg of Ketalar (Park-Davis) and 5 mg/kg of Rompun (Bayer). After implantation inside the tibia, the tumor grows causing osteolytic lesions associated with an increased activity of the osteoclasts. To obtain an injectable cell suspension, the tumor fragments were decomposed by means of enzymatic digestion with type IV collagenases (Sigma) at a concentration of 400 U/ml for 20 minutes at 37° C.
The compounds of the invention have been administered i.v. at days 1, 4 and 7 after the tumor transplantation. The extraosseous tumor mass has been measured at day 14 after tumor transplantation. The antitumor activity was determined as TWI% (tumor weight inhibition %) calculated according to the following formula:
TWI%=(100-TW meantreated animals /TW meancontrols)×100
wherein the TW for each animal is given by the formula: […]
in which a and b are respectively the maximum and minimum diameter of the tumor mass, expressed in mm.

A further data set deals with multiple myeloma. The following applies: background statement; cited from earlier work.

With `O=C(C=C(C(=O)O)C(P(=O)(O)O)P(=O)(O)O)NC(Cc1ccc(N(CCCl)CCCl)cc1)C(=O)O` (stereo not drawn) [compound (B)], the “TMS (MST = Mean Survival Time in days from the tumor inoculation)” value in data set [1] (60 mg/kg) was 70 days. For the same compound, the Tox in data set [1] (60 mg/kg) is 1/6; in data set [3] (20 mg/kg), 0/8. For the same compound, the tumor infiltration score entry in data set [2] (Backbone (soft tissues), (B) oO mg/kg) is recorded as “-”; in data set [2] (Backbone, (B) oO mg/kg), “-”; in data set [2] (Hind limbs (soft tissues), (B) oO mg/kg), “-”; in data set [2] (Hind limbs, (B) oO mg/kg) it was “-”; in data set [2] (Kidneys, (B) oO mg/kg) it was “+”; in data set [2] (Sternum, (B) oO mg/kg) it was “-”. Moreover, in data set [2], the “effect on the tumor infiltration (in words)” value is listed as “selective inhibitory effect on the tumor infiltration”. For the same compound, in data set [3] (20 mg/kg), the “TWI % (tumor weight inhibition %)” value came to 89%.

In the case of `N[C@@H](Cc1ccc(N(CCCl)CCCl)cc1)C(=O)O` [melphalan], the “TMS (MST = Mean Survival Time in days from the tumor inoculation)” value in data set [1] (6 mg/kg) is on record as 59 days. Also, the Tox is recorded as 1/5 in data set [1] (6 mg/kg) and 11/144 in data set [3] (2.8 mg/kg). The “activity against the multiple myeloma (in words)” value in the data set with multiple myeloma was “exploits activity against the multiple myeloma”. Further, the “cure of the secondary bone tumor (in words)” value in the data set on multiple myeloma is recorded as “not able to cure the secondary bone tumor”. Besides, the tumor infiltration score entry in data set [2] (Backbone (soft tissues), melfalan 6 mg/kg) is recorded as “-”; in data set [2] (Backbone, melfalan 6 mg/kg) it was “+”; in data set [2] (Hind limbs (soft tissues), melfalan 6 mg/kg), “-”; in data set [2] (Hind limbs, melfalan 6 mg/kg), “+”; in data set [2] (Kidneys, melfalan 6 mg/kg), “-”; in data set [2] (Sternum, melfalan 6 mg/kg) it was “+”. Moreover, in data set [2], the “effect on the tumor infiltration (in words)” value is “cannot be seen”. For the same compound, the “TWI % (tumor weight inhibition %)” value in data set [3] (2.8 mg/kg) amounted to 71%.
